Values quoted from earlier work, collected in patent US8492081B2, “Aldehyde-fixed, dried platelets with covalently attached exogenous active agent and method of making thereof” (The University of North Carolina at Chapel Hill, priority 2003, dated 2013).

What was measured:
Punta Toro virus = conditions: free ribavirin, not loaded on platelets; previously shown
[1] = Crotty et al., 2002

NC(=O)c1ncn([C@@H]2O[C@H](CO)[C@@H](O)[C@H]2O)n1 [ribavirin]
concentration range shown to inhibit Punta Toro virus replication in vitro (Punta Toro virus): 4-10 micrograms per ml | concentration range that exhibits antiviral activity in tissue culture [1]: 10 to 100 µM
